Results taken from US11384114B2, “Polymorphic forms of an oxysterol and methods of making them” (Warsaw Orthopedic, Inc., priority 2016, dated 2022).
Values joined by “and” are separate entries in the source; they are usually repeats but may differ in a detail not shown here. Identical values can stand only once.

How the values were obtained:
Type in all cases: physicochemical
[1] = Crystal form stability on vacuum oven drying; details: for Crystal Form (XRPD): solid after drying at 20, 35 or 50 C, solvent system differs per item
Procedure: 2.0 g anhydrous OXY133 was added to 10 mL isopropanol in a 100 mL polyblock reactor. The mixture was heated to 30° C. and then stirred at 30° C. for 45 minutes until the solids were dissolved completely. Acceptable heating temperatures ranged from 25° C. to 35° C. A polish filtration step can be added after dissolving the anhydrous OXY133. The mixture of anhydrous OXY133 and isopropanol was then cooled to 5° C. 20 mL of water was then added to the cooled mixture over 120 minutes at 5° C., resulting in the formation of a precipitate approximately one third of the way through the addition of water. The water addition can also be done in temperature ranges from about 0° C. to about 20° C. with no significant effect on the crystal structure. The resulting mixture of OXY133, isopropanol and water was then stirred at 5° C. for 18 hours. However, it is recommended that the resulting mixture could be mixed for at least 2 hours at 5° C. after the water addition was complete to ensure that all solids were precipitated from the solution. A white solid was collected by rapidly filtering the mixture and then washing the solid with 2.0 mL of an isopropanol:water mixture in a ratio of 1:2 v/v. The filtered and washed solids were then dried in a vacuum oven at 20° C. Acceptable temperatures for drying can range from about 20° C. to about 30° C.

[2] = Karl-Fisher (KF) water determination of isolated solid; details: for KF (water content determined by Karl Fischer water determination method): OXY133 polymorph sample, processing point and temperature differ per item of Table 15; for KF (Wt %) water content: solid isolated from acetone/water slurry at 0-25° C.
Description: Further, Table 15 below is a list of OXY133 polymorphs Forms A, B, C, D, E, F, G, H and I identified by a high performance liquid chromatography (HPLC) followed by charged aerosol detector (CAD) method. Table 15 also lists the starting products, the solvent system including solvent and anti-solvent, the temperature at which a polymorph was formed, the water content of the polymorph as determined by the Karl-Fisher (KF) method of water determination, and where available, the yield and purity of the resulting polymorph.

DSC/TGA water loss = experiment: DSC/TGA water loss
Procedure: Differential scanning calorimetry (DSC) and thermo-gravimetric analysis (TGA) were also collected for some of the OXY133 polymorphs. The equipment utilized to collect the DSC/TGA data was a Mettler Toledo DSC 2 equipped with an aluminum 40 μL crimped pan with a pin hole and the ramp rate was 10° C./min. DSC/TGA thermograms identifying several OXY133 polymorphs are illustrated in FIGS. 20-25.

[3] = Stability of the crystal form on stirring in the acetone/water solvent system; details: slurry stirred in acetone/water (Form C at about 20° C.; Form F at about 20° C. or about 5° C.)
[4] = isolated solid, lot 2891-28-1, prepared from anhydrous OXY133 in isopropanol/water at 5° C. (Example 6)

Structure (SMILES) | Crystal Form (XRPD) [1] | KF (water content determined by Karl Fischer water determination method) [2] [%] | KF (Wt %) water content [2] [Wt %] | stability of crystal form in acetone/water solvent system [3] | also measured
CCCCCC[C@](C)(O)[C@H]1CC[C@H]2[C@@H]3C[C@H](O)[C@H]4C[C@@H](O)CC[C@]4(C)[C@H]3CC[C@@]21C [Form 2891-8-3] | Form A | 3.25 | 3.25 |  | 
CCCCCC[C@](C)(O)[C@H]1CC[C@H]2[C@@H]3C[C@H](O)[C@H]4C[C@@H](O)CC[C@]4(C)[C@H]3CC[C@@]21C [Form 2891-10-3] | Form A | 4.02 | 4.02 |  | 
CCCCCC[C@](C)(O)[C@H]1CC[C@H]2[C@@H]3C[C@H](O)[C@H]4C[C@@H](O)CC[C@]4(C)[C@H]3CC[C@@]21C.O [Form A, (3S,5S,6S,8R,9S,10R,13S,14S,17S)-17-((S)-2-hydroxyoctan-2-yl)-10,13-dimethylhexadecahydro-1H-cyclopenta[a]phenanthrene-3,6-diol, monohydrate] |  |  |  |  | crystal form change on drying ([1]; drying at temperatures above about 20° C. to about 30° C.): slow conversion of OXY133 monohydrate to a different, unknown crystal form; KF [2, 4]: 4.07%; DSC/TGA (DSC/TGA water loss; [4]): 4.76%; water loss (DSC/TGA) (DSC/TGA water loss; ramp rate 10° C./min, listed as OXY133 monohydrate, monohydrate): 4.57% and 4.00%
CCCCCC[C@](C)(O)[C@H]1CC[C@H]2[C@@H]3C[C@H](O)[C@H]4C[C@@H](O)CC[C@]4(C)[C@H]3CC[C@@]21C [Form C] |  |  |  | fairly stable | 
CCCCCC[C@](C)(O)[C@H]1CC[C@H]2[C@@H]3C[C@H](O)[C@H]4C[C@@H](O)CC[C@]4(C)[C@H]3CC[C@@]21C [Form F] |  |  |  | somewhat stable | 
CCCCCC[C@](C)(O)[C@H]1CC[C@H]2[C@@H]3C[C@H](O)[C@H]4C[C@@H](O)CC[C@]4(C)[C@H]3CC[C@@]21C [Form 2891-9-3] | Form A | 3.83 | 3.83 |  | 
